The text below walks through data of US11510407B2, “Compositions and methods for reducing ice crystal formation” (X-THERMA, INC., priority 2015, dated 2022).

Entries after “also recorded” stand apart in the source; their conditions may differ.

Series [1] can be described thus: Crystallographic x-ray diffraction (XRD) ice crystal formation assay. The settings on record: for reduction of necessary EG concentration while preventing ice formation (ice ring scores, FIG. 3D): 1 and 5 mg/mL compound, EG 15% to 30% (v/v). The format is physicochemical. The method, then: In order to increase the throughput of library analysis, a crystallographic x-ray diffraction (XRD) technique was used to evaluate ice crystal formation. For these experiments, the compounds named “Compound 2,” “Compound 8,” “Compound 10,” “Compound 11,” “Compound 12,” “Compound 13,” and “Compound 58” were tested. Compound 58 is similar to Compound 12, except that an arginine amino acid has been appended to the N-terminal end.
For these experiments, EG concentrations between 15% and 30% (v/v) were used. Typically, EG, DMSO, and other cryoprotectants are used during XRD sample analysis at concentrations of 35-40% (v/v) to vitrify solutions and avoid diffraction interference from ice crystals. Concentrations of 1 and 5 mg/mL of the peptoid and peptoid-peptide compounds were used. […] FIG. 3D provides ice rings scores for a variety of EG concentrations and two concentrations of Compounds 2, 8, and 12.
“IceRing1” and “IceRing2” refer to ice formation scores, which range between 0 (no ice formation) and 15 (large ice formation).
The sample containing Compound 12 at a concentration of 5 mg/mL (0.5% (w/v)) and EG at a concentration of 17.5% (v/v) in water was ice-free after flash freezing. […] In the figures, black spots and rings represent ice crystals.

Series [2] concerns HEK 293 cells. The series is described as follows: Cryopreservation assay (flash freeze-thaw, Calcein AM viability). The format is cell-based, human. The method, then:
Initial cryopreservation assays were performed using very simple solutions, with and without the addition of Compound 12, in order to minimize confounding outside factors. For this first set of experiments, two sample solutions were prepared. The first sample solution contained simple buffer and ethylene glycol (EG) at a concentration of 22.5% (v/v), and the second sample solution contained simple buffer, EG (22.5% (v/v)), and 5 mg/mL (0.5% (w/v)) of Compound 12.
HEK 293 cells were grown until 70% confluent, then treated with trypsin to remove adhesion proteins and yield free floating cells. Cells were counted using a hemocytometer and sample cell concentrations were adjusted to final concentrations of 10,000 cells per microliter. Cells were then compressed into tight pellets by centrifugation, and each sample was subsequently mixed with 20 μL of one of the sample solutions. Samples were then flash frozen by immersion in liquid nitrogen, followed by rewarming in a 37° C. water bath. After the freeze-thaw process, cells were suspended in a 400× volume of culture media for recovery. The positive control sample was treated with culture media at 37° C. and not subjected to the freeze-thaw process. The negative control sample was treated with culture media only during the freeze-thaw process. After recovery, cells were stained with Calcein AM for 30 minutes and cell viability was measured using a fluorescence plate reader.
A second set of experiments was performed to evaluate the cryopreservation potential of a formulation that contained 5 mg/mL of Compound 12 plus a mixture of glycols, disaccharides, and a general buffer. Post-thaw survival following vitrification in liquid nitrogen was evaluated as described above.

Series [3] can be described thus: Larger volume flash freeze / rewarm / −20° C. storage assay. The format is physicochemical. Here is the method: In order to test the usefulness of compositions of the present invention at larger scales, experiments were performed using solution volumes that are similar to volumes used for standard egg and stem cell preservation. For these experiments, two samples, one containing 22.5% EG and buffer only, and another containing 22.5% EG and 5 mg/ml (0.5% w/v) of Compound 12 and buffer, were flash frozen in liquid nitrogen. […] The rewarming of the solutions in a 37° C. water bath led to an unexpected and beneficial result. The Compound 12 solution bypassed devitrification in less than 2 seconds upon rewarming (FIG. 6B, right), whereas chunks of ice were seen floating in the control sample (FIG. 6B, left) after 20 seconds. Condensation was seen on each of the tubes because the tubes were actually still much below room temperature.

Series [4] deals with HEK 293 cell line. The series is described as follows: Cytotoxicity assay (MTT). The format is cell-based, human. Here is the method:
A Tecan Genesis Robotic Workstation was used to prepare solutions in 96- and 384-well plates. Solutions contained culture media, buffers, a cryoprotectant composition of the present invention (Compound 12) or DMSO. Solutions were adjusted to the desired pH. Serial dilutions were performed to obtain solutions containing various concentrations of Compound 12 and DMSO. Control experiments were performed using only culture media.
For these experiments, cells were seeded at low density (i.e., 10% confluence), exposed to solutions containing Compound 12 or DMSO, and placed in a 37° C. incubator. The cells were allowed to grow until control cells that were treated only with empty vehicle approached 70% confluence (typically about 3 to 5 days). Assessment for compound cytotoxicity was via MTT assay.

The conditions of series [5]: 160 mM ethylene glycol in MilliQ water, slow cooled, −20° C., one hour. Here is the method:
In this experiment, four water-based samples were prepared in capillary tubes containing MilliQ purified water. One sample contained only water, and another sample contained 160 mM ethylene glycol (EG). The other two samples each contained a peptoid polymer at 9 mM. One of the peptoid polymer samples contained the peptoid polymer called “Compound 1,” while the other sample contained the peptoid polymer called “Compound 10.” The sequences of the peptoid polymers are as follows:
After sample preparation, all samples were slow cooled and incubated at −20° C. on a Peltier cooled plate. After one hour, samples were removed and immediately photographed using a digital camera attached to a 180× Stereo Zoom microscope (FIG. 2A).

The mark [6] stands for this setting: buffer + EG 22.5% (v/v) + 5 mg/mL Compound 12 with HEK 293 cells.

Turning to `CCC(C)NCC(=O)N(CC(=O)N(CC(=O)N(CC(=O)N(CC(=O)N(CC(=O)N(CC(=O)N(CC(=O)N(CC(=O)N(CC(N)=O)CC(C)O)C(C)CC)C(C)CC)C(C)CC)CC(C)O)CC(C)O)CC(C)O)C(C)CC)C(C)CC` (stereo not drawn) [Compound 2, Nsb-Nsb-Nsb-Nhp-Nhp-Nhp-Nsb-Nsb-Nsb-Nhp], the “reduction of necessary EG concentration while preventing ice formation (ice ring scores, FIG. 3D)” value in series [1] was “significantly reduced necessary EG concentrations while preventing ice formation”.
Same read-out and setting: with `CCC(C)NCC(=O)N(CC(=O)N(CC(=O)N(CC(=O)N(CC(=O)N(CC(=O)N(CC(=O)N(CC(=O)N(CC(=O)N(CC(N)=O)CC(C)O)CC(C)O)CC(C)O)C(C)CC)CC(C)O)CC(C)O)CC(C)O)CC(C)O)CC(C)O` (stereo not drawn) [Compound 8, Nsb-Nhp-Nhp-Nhp-Nhp-Nhp-Nsb-Nhp-Nhp-Nhp] the entry was “significantly reduced necessary EG concentrations while preventing ice formation”.
In the case of `CCC(C)NCC(=O)N(CC(=O)N(CC(=O)N(CC(=O)N(CC(=O)N(CC(=O)N(CC(=O)N(CC(=O)N(CC(=O)N(CC(N)=O)C(C)CC)C(C)CC)CC(C)O)CC(C)O)C(C)CC)C(C)CC)CC(C)O)CC(C)O)C(C)CC` (stereo not drawn) [Compound 12, Nsb-Nsb-Nhp-Nhp-Nsb-Nsb-Nhp-Nhp-Nsb-Nsb], the “cell survival after freeze-thaw versus EG alone (FIG. 8)” value in series [2] (HEK 293, buffer + EG 22.5% (v/v) + 5 mg/mL Compound 12, liquid nitrogen, viability 12 hours post-thaw) was “greatly improved cell survival”. For the same molecule, the “cryopreservation compared to VS2E and M22” value in series [2] (HEK 293, formulation containing 5 mg/mL Compound 12) is “superior cryopreservation”. Also, the “post-thaw survival of the cells” value in series [2] (HEK 293, formulation with 5 mg/mL Compound 12 plus mixture of glycols, disaccharides, general buffer, vitrified in liquid nitrogen, 16 hours post-thaw) is listed as 98%. Also, in series [2] (setting [6]), the “devitrification on rewarming compared to sample lacking Compound 12” value was “bypassed much more rapidly” and the “vitrification during the freezing process” value is listed as “complete vitrification without ice formation”. For the same molecule, in series [3] (22.5% EG + 5 mg/ml (0.5% w/v) Compound 12 + buffer, −196° C.), the “vitrification / ice formation on flash freezing in liquid nitrogen” value was “complete vitrification with no ice formation; also recorded: able to vitrify; also recorded: vitrified”. In addition, in series [3] (22.5% EG + 5 mg/ml Compound 12, 37° C. water bath), the “time to bypass devitrification upon rewarming” value is “less than 2 seconds”. In series [3] (22.5% EG + 5 mg/ml Compound 12, 100 μL samples), the “state after overnight in −20° C. freezer” value is on record as “completely unfrozen; also recorded: remained unfrozen”. Further, in series [3] (22.5% EG + 5 mg/ml Compound 12, rewarming at 37° C.), the “behaviour during rewarming / thawing” value is on record as “active de-icer during thawing; also recorded: unfroze (within two seconds)”. Moreover, the “reduction of necessary EG concentration while preventing ice formation (ice ring scores, FIG. 3D)” value in series [1] was “significantly reduced necessary EG concentrations while preventing ice formation”. Besides, the “ice formation after flash freezing (XRD, FIG. 3A)” value in series [1] (Compound 12 5 mg/mL (0.5% (w/v)) + EG 17.5% (v/v) in water, stream of liquid nitrogen vapor) was “complete vitrification; also recorded: ice-free; also recorded: completely eliminate all ice formation”. Further, the “anti-icing effect in comparison to EG at the same molar concentration” value in series [1] (Compound 12 5 mg/mL + EG 17.5% (v/v)) turned out to be 500 times. The “toxicity (MTT assay)” value in series [4] (HEK 293, at 0.5% w/v) was “did not show toxicity”. Further, the “toxicity (MTT assay)” value in series [4] (HEK 293, at concentrations four times greater than 0.5% w/v) is recorded as “did not show significant toxicity”. The “toxicity compared with culture media alone (MTT assay)” value in series [4] (HEK 293, serial dilutions, 37° C., about 3 to 5 days) is recorded as “did not significantly deviate from the that of culture media alone”.
Consider `C[S+](C)[O-]` [DMSO, dimethyl sulfoxide, reference compound], for which the “concentration above which warm survival for an extended period of time was not allowed” value in series [4] (HEK 293, MTT assay) is “above 0.5 % (v/v)”.
As to `OCCO` [EG, ethylene glycol, reference compound], the ice crystal formation entry in series [5] is given as “significant ice crystal formation”. The “ice formation after flash freezing (XRD, FIG. 3B)” value in series [1] (30% (v/v) EG alone) is given as “partial vitrification with the presence of cubic ice”.
